Experimental data: paper PMC9068900, “Pharmacology of Kappa Opioid Receptors: Novel Assays and Ligands” (Frontiers in Pharmacology, 2022)
Marks after values point to notes of the source that are not given here.

Columns and labels:
human mu opioid receptor = biological target: T1, human mu opioid receptor (Homo sapiens, UniProt P35372); experiment: Calcium mobilization in CHO cells co-expressing the mu receptor and Gαqi5; assay type: cell-based
T1 construct: expressed in transfected cells

[1] = test system: human kappa opioid receptor; experiment: Bias factor, G protein vs β-arrestin 2, from BRET data
Protocol: To quantify the differences in agonist efficacies for G protein and arrestin interactions, bias factors were calculated by choosing the endogenous kappa opioid ligand Dyn A as standard unbiased ligand. For this analysis, the Emax and EC50 of the agonist were derived using a 3-parameter logistic model with slope values equal to unity. […] Under such conditions, the relative ratio (Emax/EC50)lig/(Emax/EC50)Dyn A is equivalent to the relative (τ/K)lig/(τ/K)Dyn A ratio as defined by the operational model ([Black and Leff, 1983]; [Griffin et al., 2007]). Taking ratios of these values between G protein and arrestin can cancel the common K and yield the ratio of ligand intrinsic efficacy across the two transduction proteins. Thus, the following formula was used for calculating agonist bias factors in log10 units: bias factor= log[(Emax/EC50)lig/(Emax/EC50)Dyn A]G prot.−log[(Emax/EC50)lig/(Emax/EC50)Dyn A]β−arr.
The pharmacological terminology and computations related to biased agonism were consistent with IUPHAR recommendations ([Kolb et al., 2022]).

[2] = biological target: T2, human delta opioid receptor (Homo sapiens, UniProt P41143); experiment: Calcium mobilization in CHO cells co-expressing the delta receptor and GαqG66Di5; assay type: cell-based
T2 construct: expressed in transfected cells
T2 sequence (P41143 whole entry): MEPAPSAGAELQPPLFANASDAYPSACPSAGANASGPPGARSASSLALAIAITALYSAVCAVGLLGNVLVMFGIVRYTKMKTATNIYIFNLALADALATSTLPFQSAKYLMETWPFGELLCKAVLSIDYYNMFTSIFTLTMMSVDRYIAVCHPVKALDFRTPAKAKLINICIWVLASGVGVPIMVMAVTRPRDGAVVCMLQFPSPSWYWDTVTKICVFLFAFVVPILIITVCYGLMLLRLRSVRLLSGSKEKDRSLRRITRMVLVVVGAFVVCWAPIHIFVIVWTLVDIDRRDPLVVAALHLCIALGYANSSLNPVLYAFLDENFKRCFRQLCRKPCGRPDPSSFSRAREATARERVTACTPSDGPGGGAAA

[3] = biological target: T3, human kappa opioid receptor (Homo sapiens, UniProt P41145); experiment: biochemical; assay type: biochemical; parameters: 13-mer linker peptide […]; expressed in transfected cells; enriched plasma membranes used
T3 sequence (P41145 whole entry): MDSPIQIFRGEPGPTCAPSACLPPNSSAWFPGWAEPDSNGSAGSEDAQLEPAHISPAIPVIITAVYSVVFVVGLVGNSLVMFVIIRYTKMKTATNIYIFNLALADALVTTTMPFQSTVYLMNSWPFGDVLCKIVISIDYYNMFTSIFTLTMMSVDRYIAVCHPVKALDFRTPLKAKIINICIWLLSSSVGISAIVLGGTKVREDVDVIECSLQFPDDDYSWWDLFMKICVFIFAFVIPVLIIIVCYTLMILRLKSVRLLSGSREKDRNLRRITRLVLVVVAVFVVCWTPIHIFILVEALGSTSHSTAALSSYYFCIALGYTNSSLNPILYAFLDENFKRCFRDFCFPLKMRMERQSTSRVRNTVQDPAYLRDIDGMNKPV

[4] = biological target: T3, human kappa opioid receptor; experiment: BRET kappa-β-arrestin 2 interaction, SH-SY5Y whole cells; assay type: cell-based; parameters: 13-mer linker peptide […]; expressed in transfected cells; enriched plasma membranes used
[5] = biological target: T3, human kappa opioid receptor; experiment: Calcium mobilization in CHO cells co-expressing the kappa receptor and Gαqi5; assay type: cell-based; parameters: expressed in transfected cells
[6] = biological target: T3, human kappa opioid receptor; experiment: Summary over the assays used (calcium mobilization, DMR, BRET); assay type: cell-based; parameters: expressed in transfected cells
[7] = biological target: T3, human kappa opioid receptor; experiment: Dynamic mass redistribution (DMR) label-free assay in CHO cells; assay type: cell-based; parameters: expressed in transfected cells
Protocol: DMR experiments were conducted as previously described ([Malfacini et al., 2018]). Chinese Hamster Ovary (CHO) cells stably expressing the human kappa receptor were kindly provided by L Toll (Torrey Pines Institute for Molecular Studies, Port St. Lucie, United States). Cells were cultured in Dulbecco’s Modified Eagle Medium: Nutrient Mixture F-12 (DMEM/F12) supplemented with 10% (v/v) Fetal Calf Serum (FCS), 100 U/ml penicillin, 100 μg/ml streptomycin, 2 mM L-glutamine, 15 mM HEPES. The medium was supplemented with 400 μg/ml G418 to maintain expression. Cells were seeded at a density of 45,000 cells/well in 120 μL into fibronectin-coated EnspireTM-LC 96-wells plates and cultured for 20 h to form a confluent monolayer. On the day of the experiment, cells were washed twice and maintained with assay buffer: HBSS with 20 mM HEPES, 0.01% BSA fraction V; for 90 min before the experiment. DMR was monitored in real-time with a temporal resolution of 44 s throughout the assay. Experiments were performed at 37°C, using an EnSight Multimode Plate Reader (PerkinElmer). A 5 min baseline was first established, followed by adding compounds manually in a volume of 40 μL and recording compound-triggered DMR signal for 60 min. In antagonism experiments, ligands tested as antagonists were added 30 min before agonist administration. Maximum picometers (pm) modification (peak) were used to determine agonist response after baseline normalization.
The pharmacological terminology is consistent with the International Union of Basic and Clinical Pharmacology (IUPHAR) recommendations ([Neubig et al., 2003]). Concentration-response curves to agonists were fitted to the four-parameter logistic nonlinear regression model as follows: Effect=Basal+ Emax−Basal/1+10^ (LogEC50−Log[ligand]) × HillSlope
If unsurmountable antagonist behavior was detected, the pKB value was derived as follows: a double-reciprocal plot of equi-effective concentrations of agonist (A) in the absence (1/A) and presence (1/A’) of the antagonist (B) was constructed and pKB was derived from the equation pKB = log {(slope-1)/[B]} ([Kenakin, 2009]).

mice [8] = test system: mice; parameters: method as in Gairin et al., 1988a; details: intracerebroventricular, ref Gairin et al., 1988a; cited from earlier work
mice [9] = test system: mice; parameters: method as in Gairin et al., 1988a; details: intracerebroventricular, ref Gairin et al., 1988a; cited from earlier work; remark: listed apart in the source
kappa opioid receptor = test system: kappa opioid receptor; parameters: method as in Arimitsu et al., 1977; details: ref Arimitsu et al., 1977, cited from earlier work

T1 sequence (P35372 whole entry): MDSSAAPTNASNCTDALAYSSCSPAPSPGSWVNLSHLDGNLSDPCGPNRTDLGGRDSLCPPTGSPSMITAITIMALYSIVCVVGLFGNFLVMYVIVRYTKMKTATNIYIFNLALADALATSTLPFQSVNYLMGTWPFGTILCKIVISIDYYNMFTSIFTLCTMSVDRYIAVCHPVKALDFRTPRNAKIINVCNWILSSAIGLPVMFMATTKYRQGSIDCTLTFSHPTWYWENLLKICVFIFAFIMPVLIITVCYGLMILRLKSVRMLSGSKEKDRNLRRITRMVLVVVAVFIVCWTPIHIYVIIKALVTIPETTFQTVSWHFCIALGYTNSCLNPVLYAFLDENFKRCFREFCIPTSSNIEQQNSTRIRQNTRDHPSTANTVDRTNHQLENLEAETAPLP

## C[C@@H](NC(=O)[C@@H](N)Cc1ccc(O)cc1)C(=O)N[C@@H](Cc1ccccc1)C(=O)NCC(=O)N[C@@H](Cc1ccc(O)cc1)C(=O)N1CCC[C@H]1C(=O)N[C@@H](CO)C(N)=O [Dermorphin]
Human mu opioid receptor; CHO cells, mu + Gαqi5
  Maximal effects: 294 % over the baseline

## CC[C@H](C)[C@H](NC(=O)[C@H](CCCNC(=N)N)NC(=O)[C@H](CCCNC(=N)N)NC(=O)[C@H](CC(C)C)NC(=O)[C@H](Cc1ccccc1)NC(=O)CNC(=O)CNC(=O)[C@@H](N)Cc1ccc(O)cc1)C(=O)N[C@@H](CCCNC(=N)N)C(=O)N1CCC[C@H]1C(=O)N[C@@H](CCCCN)C(=O)N[C@@H](CC(C)C)C(=O)N[C@@H](CCCCN)C(=O)N[C@@H](Cc1c[nH]c2ccccc12)C(=O)N[C@@H](CC(=O)O)C(=O)N[C@@H](CC(N)=O)C(=O)N[C@@H](CCC(N)=O)C(=O)O [Dyn A, dynorphin A]
[1]
  Bias factor (CL95%): 0.00
[2]; CHO cells, delta + GαqG66Di5
  Maximal effects: 171 % over the baseline

## CCCCCCCCCCCCCCCC(=O)NCCCN1C(=O)CC(SC[C@H](NC(=O)[C@H](CCC(N)=O)NC(=O)[C@H](CC(N)=O)NC(=O)[C@H](CC(=O)O)NC(=O)[C@H](Cc2c[nH]c3ccccc23)NC(=O)[C@H](CCCCN)NC(=O)[C@H](CC(C)C)NC(=O)[C@H](CCCCN)NC(=O)[C@@H]2CCCN2C(=O)[C@H](CCCNC(=N)N)NC(=O)[C@@H](NC(=O)[C@H](CCCNC(=N)N)NC(=O)[C@H](CCCNC(=N)N)NC(=O)[C@H](CC(C)C)NC(=O)[C@H](Cc2ccccc2)NC(=O)CNC(=O)CNC(=O)[C@@H](N)Cc2ccc(O)cc2)[C@@H](C)CC)C(N)=O)C1=O (some centres unmarked) [Dyn A-palmitic]
Human mu opioid receptor; calcium mobilization, mu
  Lower potency than dermorphin: approximately 6 fold
[2]; calcium mobilization, delta
  Less potent than DPDPE: 10 fold

## Nc1nc2c(ncn2[C@@H]2O[C@H](COP(=O)(O)OP(=O)(O)O)[C@@H](O)[C@H]2O)c(=O)[nH]1 [GDP, guanosine diphosphate]
[3]; 5 min after compound addition
  pEC50 (CL95%): 8.20
[3]; 30 min after compound addition
  pEC50 (CL95%): 8.21

## CC[C@H](C)[C@H](NC(=O)[C@H](CCCNC(=N)N)NC(=O)[C@H](CCCNC(=N)N)NC(=O)[C@H](CC(C)C)NC(=O)[C@H](Cc1ccccc1)NC(=O)CNC(=O)CNC(=O)[C@@H](N)Cc1ccc(O)cc1)C(=O)N[C@@H](CCCNC(=N)N)C(=O)N1CCC[C@H]1C(=O)N[C@@H](CCCCN)C(=O)N[C@@H](CC(C)C)C(=O)N[C@@H](CCCCN)C(=O)N[C@@H](Cc1c[nH]c2ccccc12)C(=O)N[C@@H](CC(=O)O)C(=O)N[C@@H](CC(N)=O)C(=O)N[C@@H](CCC(N)=O)C(=O)N[C@@H](CSC1CC(=O)N(CCCC(=O)N2CCCN(C(=O)CCCN3C(=O)CC(SC[C@H](NC(=O)[C@H](CCC(N)=O)NC(=O)[C@H](CC(N)=O)NC(=O)[C@H](CC(=O)O)NC(=O)[C@H](Cc4c[nH]c5ccccc45)NC(=O)[C@H](CCCCN)NC(=O)[C@H](CC(C)C)NC(=O)[C@H](CCCCN)NC(=O)[C@@H]4CCCN4C(=O)[C@H](CCCNC(=N)N)NC(=O)[C@@H](NC(=O)[C@H](CCCNC(=N)N)NC(=O)[C@H](CCCNC(=N)N)NC(=O)[C@H](CC(C)C)NC(=O)[C@H](Cc4ccccc4)NC(=O)CNC(=O)CNC(=O)[C@@H](N)Cc4ccc(O)cc4)[C@@H](C)CC)C(N)=O)C3=O)CCN(C(=O)CCCN3C(=O)CC(SC[C@H](NC(=O)[C@H](CCC(N)=O)NC(=O)[C@H](CC(N)=O)NC(=O)[C@H](CC(=O)O)NC(=O)[C@H](Cc4c[nH]c5ccccc45)NC(=O)[C@H](CCCCN)NC(=O)[C@H](CC(C)C)NC(=O)[C@H](CCCCN)NC(=O)[C@@H]4CCCN4C(=O)[C@H](CCCNC(=N)N)NC(=O)[C@@H](NC(=O)[C@H](CCCNC(=N)N)NC(=O)[C@H](CCCNC(=N)N)NC(=O)[C@H](CC(C)C)NC(=O)[C@H](Cc4ccccc4)NC(=O)CNC(=O)CNC(=O)[C@@H](N)Cc4ccc(O)cc4)[C@@H](C)CC)C(N)=O)C3=O)CCCN(C(=O)CCCN3C(=O)CC(SC[C@H](NC(=O)[C@H](CCC(N)=O)NC(=O)[C@H](CC(N)=O)NC(=O)[C@H](CC(=O)O)NC(=O)[C@H](Cc4c[nH]c5ccccc45)NC(=O)[C@H](CCCCN)NC(=O)[C@H](CC(C)C)NC(=O)[C@H](CCCCN)NC(=O)[C@@H]4CCCN4C(=O)[C@H](CCCNC(=N)N)NC(=O)[C@@H](NC(=O)[C@H](CCCNC(=N)N)NC(=O)[C@H](CCCNC(=N)N)NC(=O)[C@H](CC(C)C)NC(=O)[C@H](Cc4ccccc4)NC(=O)CNC(=O)CNC(=O)[C@@H](N)Cc4ccc(O)cc4)[C@@H](C)CC)C(N)=O)C3=O)CC2)C1=O)C(N)=O (some centres unmarked) [PWT2-Dyn A]
Human mu opioid receptor; CHO cells, mu + Gαqi5
  Agonist activity (in words): inactive
[1]
  Bias factor (CL95%): ∼0.18 ^c
[2]; only at the highest concentration tested
  Stimulatory effect: 77 % over the baseline
[3]
  BRET G Protein α: ∼1.00
  Lower potency than Dyn A: 3 fold
[3]; BRET G Protein pEC50 (CL95%)
  EC50: 18.6 nM
[4]
  BRET β-Arrestin 2 α: ∼1.00
  EC50: 219 nM
  Lower potency than Dyn A: 3 fold
[5]
  Calcium Mobilization α (intrinsic activity: maximal effect divided by that of Dyn A): ∼1.00
  EC50: 30.9 nM
[6]
  Lower potency than dynorphin A: 3–10 fold
[7]
  DMR α: 0.84
  Lower potency than Dyn A: 4 fold

## CC[C@H](C)[C@H](NC(=O)[C@H](CCCNC(=N)N)NC(=O)[C@H](CCCNC(=N)N)NC(=O)[C@H](CC(C)C)NC(=O)[C@H](Cc1ccccc1)NC(=O)CNC(=O)CNC(=O)[C@@H](N)Cc1ccc(O)cc1)C(=O)N[C@@H](CCCNC(=N)N)C(=O)N1CCC[C@@H]1C(=O)N[C@@H](CCCCN)C(N)=O [[D-Pro^10], [D-Pro^10]Dyn(1-11)-NH2]
[3]
  BRET G Protein pEC50 (CL95%): 8.36 (6.54–10.19)
  BRET G Protein α: 1.00
[4]
  BRET β-Arrestin 2 pEC50 (CL95%): 8.07 (7.66–8.47)
  BRET β-Arrestin 2 α: 0.95
[5]
  Calcium Mobilization pEC50 (CL95%): 9.08 (8.93–9.23)
  Calcium Mobilization α (intrinsic activity: maximal effect divided by that of Dyn A): 1.00
[7]
  DMR Emax: 251 pm
  DMR pEC50 (CL95%): 9.84 (9.31–10.37)
  DMR α: 1.07

## [D-Pro^10]Dyn(1-11)
Mice [8]
  Activity against thermal stimulus (tail-flick): did not show any activity
Mice [9]
  Effect in acetic acid-induced writhing: dose-dependent antinociceptive effect
Kappa opioid receptor; [^3H]Bremazocine binding
  Higher affinity to the kappa opioid receptor than Dyn A: 7 fold
Kappa opioid receptor
  Selectivity over the delta opioid receptor: 233 fold
  Selectivity over the mu opioid receptor: 62 fold
